Source: US4370323A, “2-Cyanoaziridinyl-(1)-2-substituted-aziridinyl-(1)-methanes” (Boehringer Mannheim GmbH, priority 1976, dated 1983)

What was measured:
[1] = test system: leukocytes, lymphocytes, erythrocytes, antibody-forming spleen cells; settings: intravenous; cited from earlier work
[2] = prior art compound, cited from earlier work
leucocyte number = test: Alteration of the leucocyte number in rats; assay type: in vivo, female Sprague-Dawley rats; settings: fourth day, ten rats; for response vs control in vivo at 50 mg/kg / response vs control in vivo at 200 mg/kg: Rattus norvegicus, Leucocyte, po, 96 h, read-out: proportion of the average leucocyte number of the test group to that of the control group; for proportion of the average leucocyte number of the test group to that of the control group: oral
Experimental: (a) Alteration of the leucocyte number
The active substance was dissolved in each case in 10 ml of a 1% methyl-hydroxyethyl cellulose solution per kg of body weight and orally applied by means of a neck tube to ten fasting female Sprague-Dawley rats in each case. On the fourth day, blood was taken retroorbitally and the leucocyte number was determined by means of a coult counter.

Walker-Carcinoma 256 = test: Cancerostatic effect: Walker-Carcinoma 256 transplanted in rats; assay type: in vivo, female Sprague-Dawley rats; settings: for Tumor weight: three days prior to tumor application, day 7, average of 20 animals; for Difference (tumor weight): vs control
Experimental: (§1) Ready-to-be-transplanted tumors of various kinds were taken from freshly killed rats, comminuted coarsely and pulverized with addition of 8 ml of physiological sodium chloride solution. Female Sprague-Dawley rats weighing 80 to 100 g were used as test animals. The respective tumor cell suspension was applied subfacially to the animals in an amount of 0.5 ml per animal under sterile conditions in the neck area. On the seventh day after the transplantation the animals were killed, the tumors taken out and weighed. The substances according to the instant invention were in each case applied orally three days prior to the tumor application by means of a throat tube (in 10 ml 1% hydrous methylhydroxylethyl cellulose solution per kg of body weight).

DC-Carcino-Sarcoma = test: Cancerostatic effect: DC-Carcino-Sarcoma transplanted in rats; assay type: in vivo, female Sprague-Dawley rats; settings: for Tumor weight: three days prior to tumor application, day 7, average of 20 animals; for Difference (tumor weight): vs control
Experimental: as §1

Candida albicans-219 = test: Resistance increase in case of Candida albicans infection in mice; assay type: in vivo, Candida albicans; female NMRI mice; settings: 50 mg per kg oral, one hour after i.v. infection, after six days
Experimental: Female, adult NMRI mice weighing 25-30 g were infected with Candida albicans-219. A suspension of approximately 300,000 germs in 0.2 ml physiological sodium chloride per animal was given intravenously. One hour later, 50 mg of the compound of Example 1, per kg body weight, were applied orally by way of neck tube, dissolved in 10 ml 0.1% methyl-hydroxyethyl cellulose. The control group received the same solution without active material. After six days, 18 of the 30 animals of the control group were dead, but only 3 of the 30 animals of the test group, which corresponds to a survival rate of 90% and makes clearly evident the resistance-increasing effect.

Candida albicans = test: In vitro fungistatic effect; assay type: cell-based
[3] = Acute toxicity (LD50) in rats; settings: rat, in vivo
Experimental: (§2) These values are much higher than the pharmacologically effective dosages (0.5-50 mg/kg body weight).

[4] = Acute toxicity (LD50) in mice; settings: mouse, in vivo, ip, single intraperitoneal administration
Experimental: as §2

| SMILES | response vs control in vivo at 50 mg/kg (leucocyte number; 50 mg per kg body weight) [%] | response vs control in vivo at 200 mg/kg (leucocyte number; 200 mg per kg body weight) [%] | further results |
| --- | --- | --- | --- |
| N#CC1CN1C(N)=O (stereo not drawn) [1-carboxamido-2-cyanoaziridine] | – | – | antibody-forming spleen cells [1]: increase of the antibody-forming spleen cells; cytostatic action [1]: cytostatic action; number of erythrocytes [1]: substantially unchanged; number of leukocytes and lymphocytes [1]: marked increase; keeping time in buffered aqueous solution ([2]; buffered aqueous solution): can only be kept for a short time; acid stability [2]: acid lability |
| CC(C)C(N1CC1C#N)N1CC1C(N)=O (stereo not drawn) [27 a] | 119 | 166 | – |
| CCC(N1CC1C#N)N1CC1C(N)=O (stereo not drawn) [27 d] | 140 | 178 | – |
| CCCC(N1CC1C#N)N1CC1C(N)=O (stereo not drawn) [27 e] | 130 | 136 | – |
| N#CC1CN1C1(N2CC2C(N)=O)CCOCC1 (stereo not drawn) [28 a] | 109 | 130 | – |
| N#CC1CN1C(C1CCCCC1)N1CC1C(N)=O (stereo not drawn) [28 b] | 120 | 155 | – |
| N#CC1CN1C(c1ccc(Cl)cc1)N1CC1C(N)=O (stereo not drawn) [29 b] | 100 | 140 | – |
| N#CC1CN1C(c1ccco1)N1CC1C(N)=O (stereo not drawn) [29 d] | 100 | 130 | – |
| N#CC1CN1C(c1cccs1)N1CC1C(N)=O (stereo not drawn) [29 e] | 115 | 150 | – |
| N#CC1CN1C(c1cccc([N+](=O)[O-])c1)N1CC1C(N)=O (stereo not drawn) [29 f] | 109 | 126 | – |
| Cc1ccccc1C(N1CC1C#N)N1CC1C(N)=O (stereo not drawn) [30 a] | 140 | 134 | – |
| COc1cccc(C(N2CC2C#N)N2CC2C(N)=O)c1 (stereo not drawn) [30 b] | 122 | 131 | – |
| N#CC1CN1C(c1ccc(O)cc1)N1CC1C(N)=O (stereo not drawn) [30 c] | 170 | 221 | – |
| COC(=O)c1ccc(C(N2CC2C#N)N2CC2C(N)=O)cc1 (stereo not drawn) [30 d] | 108 | 150 | – |
| CC(C)(N1CC1C#N)N1CC1C(N)=O (stereo not drawn) [Example 1, 2-[2-Cyanoaziridinyl-(1)]-2-[2-carbamoylaziridinyl-(1)]-propane] | – | – | Tumor weight (Walker-Carcinoma 256; 5.0 mg/kg oral): 11.8 g; Difference (tumor weight) (Walker-Carcinoma 256; 5.0 mg/kg oral): -27.1%; Tumor weight (Walker-Carcinoma 256; 50.0 mg/kg oral): 12.1 g; Difference (tumor weight) (Walker-Carcinoma 256; 50.0 mg/kg oral): -25.4%; Tumor weight (Walker-Carcinoma 256; 100.0 mg/kg oral): 15.6 g; Tumor weight (DC-Carcino-Sarcoma; 150 mg/kg oral): 5.9 g; Difference (tumor weight) (DC-Carcino-Sarcoma; 150 mg/kg oral): -67.0%; Tumor weight (DC-Carcino-Sarcoma; 300 mg/kg oral): 9.8 g; Difference (tumor weight) (DC-Carcino-Sarcoma; 300 mg/kg oral): -45.0%; proportion of the average leucocyte number of the test group to that of the control group (leucocyte number; 50 mg per kg body weight): 1,70; proportion of the average leucocyte number of the test group to that of the control group (leucocyte number; 200 mg per kg body weight): 1,55; survival rate (Candida albicans-219): 90%; dead animals (Candida albicans-219; control 18 of 30): 3 of the 30 animals; fungistatic effect (Candida albicans): no fungistatic effect; LD50 ([3]; ip, single intraperitoneal administration, read-out: acute toxicity (LD50)): 2550 mg/kg; LD50 ([3]; oral administration, read-out: LD50): 3100 mg/kg; LD50 [4]: 2270 mg/kg |
| CC(C)(N1CC1C#N)N1CC1C(N)=O (stereo not drawn) [Example 3, 2-[2-Cyanoaziridinyl-(1)]-2-[2-carbamoylaziridinyl-(1)]-propane] | – | – | proportion of the average leucocyte number of the test group to that of the control group (leucocyte number; 50 mg per kg body weight): 1,42; proportion of the average leucocyte number of the test group to that of the control group (leucocyte number; 200 mg per kg body weight): 1,82 |
| CCOC(=O)C(C)(N1CC1C#N)N1CC1C(N)=O (stereo not drawn) [Example 6, Ethyl α-[2-cyanoaziridinyl-(1)]-α-[2-carbamoylaziridinyl-(1)]-propionate] | 115 | 165 | – |
| CC(C1CC1)(N1CC1C#N)N1CC1C(N)=O (stereo not drawn) [Example 9, 1-[2-cyanoaziridinyl-(1)]-1-[2-carbamoylaziridinyl-(1)]-1-cyclopropylethane] | 132 | 182 | – |
| N#CC1CN1C1(N2CC2C(N)=O)CCCCC1 (stereo not drawn) [Example 10, 1-[2-Cyanoaziridinyl-(1)]-1-[2-carbamoylaziridinyl-(1)]cyclohexane] | – | – | Tumor weight (Walker-Carcinoma 256; 10.0 mg/kg oral): 7.9 g; Tumor weight (Walker-Carcinoma 256; 50.0 mg/kg oral): 5.0 g; Difference (tumor weight) (Walker-Carcinoma 256; 50.0 mg/kg oral): -41.7%; Tumor weight (Walker-Carcinoma 256; 100.0 mg/kg oral): 4.5 g; Difference (tumor weight) (Walker-Carcinoma 256; 100.0 mg/kg oral): -46.9%; Tumor weight (DC-Carcino-Sarcoma; 50 mg/kg oral): 11.0 g; Difference (tumor weight) (DC-Carcino-Sarcoma; 50 mg/kg oral): -38.5%; Tumor weight (DC-Carcino-Sarcoma; 100 mg/kg oral): 10.9 g; Difference (tumor weight) (DC-Carcino-Sarcoma; 100 mg/kg oral): -40.0%; proportion of the average leucocyte number of the test group to that of the control group (leucocyte number; 50 mg per kg body weight): 0,92; proportion of the average leucocyte number of the test group to that of the control group (leucocyte number; 200 mg per kg body weight): 2,06 |
| N#CC1CN1C1(N2CC2C(N)=O)CCCCC1 (stereo not drawn) [Example 16, 1-[2-Cyanoaziridinyl-(1)]-1-[2-carbamoylaziridinyl-(1)]-cyclohexane] | – | – | proportion of the average leucocyte number of the test group to that of the control group (leucocyte number; 50 mg per kg body weight): 1,30; proportion of the average leucocyte number of the test group to that of the control group (leucocyte number; 200 mg per kg body weight): 1,50 |
| CC1CCC(N2CC2C#N)(N2CC2C(N)=O)CC1 (stereo not drawn) [Example 19, 1-[2-Cyanoaziridinyl-(1)]-1-[2-carbamoylaziridinyl-(1)]-4-methylcyclohexane] | 100 | 136 | – |
| COC(=O)C1CCC(N2CC2C#N)(N2CC2C(N)=O)CC1 (stereo not drawn) [Example 20, 1-[2-Cyanoaziridinyl-(1)]-1-[2-carbamoylaziridinyl-(1)]-4-methoxycarbonylcyclohexane] | 123 | 151 | – |
| N#CC1CN1C1CCCC(N2CC2C#N)(N2CC2C(N)=O)C1 (stereo not drawn) [Example 21, 1,3-Bis-[2-cyanoaziridinyl-(1)]-1-[2-carbamoylaziridinyl-(1)]-cyclohexane] | 111 | 130 | – |
| N#CC1CN1C(c1ccccc1)(c1ccccc1)N1CC1C(N)=O (stereo not drawn) [Example 26, α-[2-Cyanoaziridinyl-(1)]-α-[2-carbamoylaziridinyl-(1)]-diphenylmethane] | 125 | 120 | – |
| CC(N1CC1C#N)N1CC1C(N)=O (stereo not drawn) [Example 27, 1-[2-Cyanoaziridinyl-(1)]-1-[2-carbamoylaziridinyl-(1)]-ethane] | 117 | 153 | – |
| N#CC1CN1C1(N2CC2C(N)=O)CCCSC1 (stereo not drawn) [Example 28, 3-[2-Cyanoaziridinyl-(1)]-3-[2-carbamoylaziridinyl-(1)]-tetrahydrothiapyran] | 126 | 180 | – |
| N#CC1CN1C(C=Cc1ccccc1)N1CC1C(N)=O (stereo not drawn) [Example 31, 3-[2-cyanoaziridinyl-(1)]-3-[2-carbamoylaziridinyl-(1)]-1-phenylprop-1-ene] | 113 | 141 | – |
| N#CC1CN1C1(N2CC2C#N)CCCCC1 (stereo not drawn) [Example 32, 1,1-bis-[2-cyanoaziridinyl-(1)]-cyclohexane] | 150 | 150 | – |
